Measured values reported in patent publication US20130261132A1, “CALCIUM-SENSING RECEPTOR-ACTIVE COMPOUNDS” (LEO PHARMA A/S, priority 2010, published 2013).

Target: T1, human CaSR (Homo sapiens, UniProt P41180)
T1 sequence (P41180 20-1078): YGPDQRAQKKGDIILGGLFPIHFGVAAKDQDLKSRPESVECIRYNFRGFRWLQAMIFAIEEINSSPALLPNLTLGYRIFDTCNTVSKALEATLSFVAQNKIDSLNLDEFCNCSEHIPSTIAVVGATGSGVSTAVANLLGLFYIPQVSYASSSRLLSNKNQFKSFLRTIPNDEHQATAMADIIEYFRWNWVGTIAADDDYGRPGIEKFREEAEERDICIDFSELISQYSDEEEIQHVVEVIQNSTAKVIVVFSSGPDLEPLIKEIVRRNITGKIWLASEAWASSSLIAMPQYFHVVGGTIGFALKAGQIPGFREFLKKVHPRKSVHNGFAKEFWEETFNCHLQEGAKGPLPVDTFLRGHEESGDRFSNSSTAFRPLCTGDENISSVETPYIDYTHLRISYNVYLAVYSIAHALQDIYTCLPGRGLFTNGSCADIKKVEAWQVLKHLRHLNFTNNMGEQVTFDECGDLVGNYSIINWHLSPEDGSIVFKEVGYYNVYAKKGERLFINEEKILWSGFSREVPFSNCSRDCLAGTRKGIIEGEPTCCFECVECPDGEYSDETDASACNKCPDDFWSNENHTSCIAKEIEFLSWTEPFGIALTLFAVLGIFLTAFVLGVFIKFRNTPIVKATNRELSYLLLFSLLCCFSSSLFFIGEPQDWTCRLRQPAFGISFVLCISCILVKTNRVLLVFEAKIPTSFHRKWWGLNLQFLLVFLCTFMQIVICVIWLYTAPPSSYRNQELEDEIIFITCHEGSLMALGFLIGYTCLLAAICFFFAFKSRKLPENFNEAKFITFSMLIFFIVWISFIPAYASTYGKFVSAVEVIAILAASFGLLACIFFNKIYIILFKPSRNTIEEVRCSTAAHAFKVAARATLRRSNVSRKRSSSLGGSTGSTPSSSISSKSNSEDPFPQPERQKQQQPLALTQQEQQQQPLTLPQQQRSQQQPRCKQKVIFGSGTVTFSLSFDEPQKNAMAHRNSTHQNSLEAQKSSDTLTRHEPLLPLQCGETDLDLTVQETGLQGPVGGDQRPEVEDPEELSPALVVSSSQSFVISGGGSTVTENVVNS
Experiment: Functional whole cell assay (modulation of human CaSR), IP1 accumulation in CHO-K1 cells
Format: cell-based
Details: CHO-K1 cells stably expressing human CaSR, final Ca2+ 1.9 mM, IP1 readout; concentration producing 50% of maximum agonistic response
Description: The assay investigates a compound's functional ability to act as a biological positive modulator on the human CaSR. Activation of the receptor expressed on CHO-K1 cells is detected through the G alpha q pathway, the activation of phospholipase C and the accumulation of intracellular inositol phosphate (IP) as described earlier [Sandrine Ferry, Bruno Chatel, Robert H. Dodd, Christine Lair, Danielle Gully, Jean-Pierre Maffrand, and Martial Ruat. Effects of Divalent Cations and of a Calcimimetic on Adrenocorticotropic Hormone Release in Pituitary Tumor Cells. Biochemical and biophysical research Communications 238, 866-873 (1997)]. The human CaSR is stably expressed on a CHO-K1 cell clone, stimulated with a basal level of calcium and challenged with the tested compound. The level of IP1 is determined using the IP-One Terbium htrf kit (Cisbio, France). CHO-K1 cells not transfected with the CaSR fail to elicit an IP1 response upon calcium and/or compound stimulation.
The ORF coding for the human CaSR (genebank: NM_000388) was acquired from Invitrogen Corp, USA and subsequently cloned into the mammalian expression vector pCDA3.1.
CHO-K1 cells were transfected using Lipofectamine according to manufacturer's protocol (400.000 cells/well were seeded in a 6-well plate and transfected after 24 hours using 2 μg DNA and 5 μl lipofectamine). After another 24 hours the cells were detached, seeded and subjected to 1 mg/ml of G-418. Following 7 days growth single clones were picked, the CaSR expression evaluated using the 5C10 antibody against CaSR, the clones with the highest expression were selected and tested for functional response. The preferred clone was cultured according to standard procedures described in ATCC (American Type Culture Collection) protocols for CHO-K1 with the addition of 500 μg/ml G-418.
On the assay day, cells were thawed, harvested and resuspended to 4*10^6 cells/ml in stimulation buffer (containing: Hepes 10 mM, MgCl2 0.5 mM, KCl 4.2 mM, NaCl 146 mM, glucose 5.5 mM, LiCl 50 mM, BSA 0.5% at pH 7.4). Ten μl cell solution was pipetted into wells of a white 384-well plate (Perkin Elmer Optiplate) containing 2 μl compound diluted in assay buffer (containing: Hepes 10 mM, MgCl2 0.5 mM, KCl 4.2 mM, NaCl 146 mM, glucose 5.5 mM, LiCl 50 mM, CaCl2 11.4 mM at pH 7.4), resulting in a final Ca^2+ concentration of 1.9 mM. After compound stimulation for 1 hour at 37° C. and 15 min at room temperature, 10 ul of IP-One assay detection reagent (prepared as described by the IP-One assay kit manufacturer) was added and the plate was incubated for another 1 hour at room temperature. Finally the plate was read using a Perkin Elmer EnVision, according to the protocol supplied by the IP-One assay kit manufacturer. The FRET ratio was calculated by dividing the 665 nm emission signal with that of the 615 nm.
The molar concentration of a compound that produces 50% of the maximum agonistic response (the […] value) is calculated according to the equation “General sigmoidal curve with Hill slope, a to d” (Equation 1). This model describes a sigmoidal curve with an adjustable baseline. The equation can be used to fit curves where response is either increasing or decreasing with respect to the independent variable, X. […]
y=(a−d)/(1+(x/c)̂b)+d Equation 1 x=concentration of tested compound […]
a=min response as compound concentration approaches 0 d=max response as concentration of tested compound is increasing […]
b=Hill coefficient or curve slope

Row | Structure (SMILES) | EC50 [nM]
1 | COc1cc([C@@H](C)N[C@H]2CC[C@@H](c3ccc(OCC(=O)N4CCNCC4)cc3)C2)ccc1F [Compound 103, 2-[4-[(1R,3S)-3-[[(1R)-1-(4-Fluoro-3-methoxy-phenyl)ethyl]-amino]-cyclopentyl]phenoxy]-1-piperazin-1-yl-ethanone] | < 200
2 | COc1cc([C@@H](C)N[C@H]2CC[C@@H](c3ccc(OCC(=O)NCCNS(C)(=O)=O)cc3)C2)ccc1F [Compound 108, 2-[4-[(1R,3S)-3-[[(1R)-1-(4-Fluoro-3-methoxy-phenyl)ethyl]-amino]-cyclopentyl]phenoxy]-N-[2-(methanesulfonamido)ethyl]acetamide] | < 200
3 | COc1cc([C@@H](C)N[C@H]2CC[C@@H](c3ccc(OCC(=O)NCCS(N)(=O)=O)cc3)C2)ccc1F [Compound 104, 2-[4-[(1R,3S)-3-[[(1R)-1-(4-Fluoro-3-methoxy-phenyl)ethyl]-amino]-cyclopentyl]phenoxy]-N-(2-sulfamoylethyl)acetamide] | < 200
4 | COc1cc([C@@H](C)N[C@H]2CC[C@@H](c3ccc(OCC(=O)NCCNCCO)cc3)C2)ccc1F [Compound 106, 2-[4-[(1R,3S)-3-[[(1R)-1-(4-Fluoro-3-methoxy-phenyl)ethyl]-amino]-cyclopentyl]phenoxy]-N-[2-(2-hydroxyethylamino)ethyl]acetamide] | < 200
5 | C[C@@H](N[C@H]1CC[C@@H](c2ccc(OCC(=O)NC3CCNCC3)cc2)C1)c1cccc2ccccc12 [Compound 112, 2-[4-[(1R,3S)-3-[[(1R)-1-(1-Naphthyl)ethyl]amino]cyclopentyl]-phenoxy]-N-(4-piperidyl)acetamide] | < 200
6 | COc1cc([C@@H](C)N[C@H]2CC[C@@H](c3ccc(OCC(=O)N4CCN(S(N)(=O)=O)CC4)cc3)C2)ccc1F [Compound 110, 4-[2-[4-[(1R,3S)-3-[[(1R)-1-(4-Fluoro-3-methoxy-phenyl)-ethyl]-amino]cyclopentyl]phenoxy]acetyl]piperazine-1-sulfonamide] | < 200
7 | COc1cc([C@@H](C)N[C@H]2CC[C@@H](c3ccc(OCC(=O)N4CCN(C(C)=O)CC4)cc3)C2)ccc1F [Compound 109, 1-(4-Acetylpiperazin-1-yl)-2-[4-[(1R,3S)-3-[[(1R)-1-(4-fluoro-3-methoxy-phenyl)ethyl]amino]cyclopentyl]phenoxy]ethanone] | < 200
